Laboratory results as given in PubChem BioAssay AID1259407 (Chemical Carcinogenesis Research Information System (CCRIS), 2018).
Activity calls are given as the source filed them. No rule for the calls is given here.

Test system: CCRIS mutagenicity, Ames/micronucleus/aberration tests
Experiment: CCRIS mutagenicity studies
[1] = Test System: AMES SALMONELLA TYPHIMURIUM, Strain/Indicator: TA100, Metabolic Activation: NONE, Method: STANDARD PLATE
[2] = Test System: AMES SALMONELLA TYPHIMURIUM, Strain/Indicator: TA98, Metabolic Activation: NONE, Method: PREINCUBATION
[3] = Test System: AMES SALMONELLA TYPHIMURIUM, Strain/Indicator: TA100, Metabolic Activation: NONE, Method: PREINCUBATION
[4] = Test System: AMES SALMONELLA TYPHIMURIUM, Strain/Indicator: TA1535, Metabolic Activation: NONE, Method: PREINCUBATION
[5] = Test System: AMES SALMONELLA TYPHIMURIUM, Strain/Indicator: TA1537, Metabolic Activation: NONE, Method: STANDARD PLATE
[6] = Test System: MOUSE LYMPHOMA, Strain/Indicator: L5178Y (TK+/TK-), Metabolic Activation: NONE, Method: SUSPENSION/PLATE

## COc1ccc(CNC(=O)C(C)Br)cc1OC (centres undefined)
[1]
  mutagenic call: active; positive

## CN(N=O)C(CCC(=O)O)c1cccnc1 (centres undefined)
Test System: UDS RODENT HEPATOCYTES, Metabolic Activation: NONE
  mutagenic call: inactive; negative

## CCCCCCC[CH2][Sn]([Cl])([Cl])[CH2]CCCCCCC
Test System: CHINESE HAMSTER V-79, Strain/Indicator: V-79/8-AZAGUANINE, Metabolic Activation: NONE
  mutagenic call: active; positive
Test System: CHINESE HAMSTER V-79, Strain/Indicator: V-79/8-AZAGUANINE, Metabolic Activation: RAT HEPATOCYTES
  mutagenic call: inactive; negative

## CC(=O)Nc1cccc(N)c1C(=O)O
[2]
  mutagenic call: inactive; negative
Test System: AMES SALMONELLA TYPHIMURIUM, Strain/Indicator: TA98, Metabolic Activation: RAT, LIVER, S-9, PHENOBARBITAL AND 5,6-BENZOFLAVONE, Method: PREINCUBATION
  mutagenic call: active; positive
[3]
  mutagenic call: inactive; negative
Test System: AMES SALMONELLA TYPHIMURIUM, Strain/Indicator: TA100, Metabolic Activation: RAT, LIVER, S-9, PHENOBARBITAL AND 5,6-BENZOFLAVONE, Method: PREINCUBATION
  mutagenic call: inactive; negative

## Cc1cc(=O)[nH]c(=S)[nH]1
Test System: AMES SALMONELLA TYPHIMURIUM, Strain/Indicator: TA97, Metabolic Activation: HAMSTER, LIVER, S-9, AROCLOR 1254 (10 OR 30%), Method: PREINCUBATION
  mutagenic call: inactive; negative
Test System: AMES SALMONELLA TYPHIMURIUM, Strain/Indicator: TA97, Metabolic Activation: NONE, Method: PREINCUBATION
  mutagenic call: inactive; negative
Test System: AMES SALMONELLA TYPHIMURIUM, Strain/Indicator: TA97, Metabolic Activation: RAT, LIVER, S-9, AROCLOR 1254 (10 OR 30%), Method: PREINCUBATION
  mutagenic call: inactive; negative
Test System: AMES SALMONELLA TYPHIMURIUM, Strain/Indicator: TA98, Metabolic Activation: HAMSTER, LIVER, S-9, AROCLOR 1254 (10 OR 30%), Method: PREINCUBATION
  mutagenic call: inactive; negative
[2]
  mutagenic call: inactive; negative
Test System: AMES SALMONELLA TYPHIMURIUM, Strain/Indicator: TA98, Metabolic Activation: RAT, LIVER, S-9, AROCLOR 1254 (10 OR 30%), Method: PREINCUBATION
  mutagenic call: inactive; negative
Test System: AMES SALMONELLA TYPHIMURIUM, Strain/Indicator: TA100, Metabolic Activation: HAMSTER, LIVER, S-9, AROCLOR 1254 (10%), Method: PREINCUBATION
  mutagenic call: inactive; negative
Test System: AMES SALMONELLA TYPHIMURIUM, Strain/Indicator: TA100, Metabolic Activation: HAMSTER, LIVER, S-9, AROCLOR 1254 (30%), Method: PREINCUBATION
  mutagenic call: inactive; negative
[3]
  mutagenic call: inactive; negative
Test System: AMES SALMONELLA TYPHIMURIUM, Strain/Indicator: TA100, Metabolic Activation: RAT, LIVER, S-9, AROCLOR 1254 (10%), Method: PREINCUBATION
  mutagenic call: inactive; negative
Test System: AMES SALMONELLA TYPHIMURIUM, Strain/Indicator: TA100, Metabolic Activation: RAT, LIVER, S-9, AROCLOR 1254 (30%), Method: PREINCUBATION
  mutagenic call: inactive; negative
Test System: AMES SALMONELLA TYPHIMURIUM, Strain/Indicator: TA1535, Metabolic Activation: HAMSTER, LIVER, S-9, AROCLOR 1254 (10 OR 30%), Method: PREINCUBATION
  mutagenic call: inactive; negative
[4]
  mutagenic call: inactive; negative
Test System: AMES SALMONELLA TYPHIMURIUM, Strain/Indicator: TA1535, Metabolic Activation: RAT, LIVER, S-9, AROCLOR 1254 (10 OR 30%), Method: PREINCUBATION
  mutagenic call: inactive; negative

## O=C(O)c1cc(O)c2c(c1)C(=O)c1cccc(O)c1C2=O
Test System: AMES SALMONELLA TYPHIMURIUM, Strain/Indicator: TA97A, Metabolic Activation: NONE, Method: STANDARD PLATE
  mutagenic call: inactive; negative
Test System: AMES SALMONELLA TYPHIMURIUM, Strain/Indicator: TA97A, Metabolic Activation: RAT, LIVER, S-9, AROCLOR 1254, Method: STANDARD PLATE
  mutagenic call: inactive; negative
Test System: AMES SALMONELLA TYPHIMURIUM, Strain/Indicator: TA98, Metabolic Activation: NONE, Method: STANDARD PLATE
  mutagenic call: inactive; negative
Test System: AMES SALMONELLA TYPHIMURIUM, Strain/Indicator: TA98, Metabolic Activation: RAT, LIVER, S-9, AROCLOR 1254, Method: STANDARD PLATE
  mutagenic call: inactive; negative
[1]
  mutagenic call: inactive; negative
Test System: AMES SALMONELLA TYPHIMURIUM, Strain/Indicator: TA100, Metabolic Activation: RAT, LIVER, S-9, AROCLOR 1254, Method: STANDARD PLATE
  mutagenic call: inactive; negative
Test System: AMES SALMONELLA TYPHIMURIUM, Strain/Indicator: TA102, Metabolic Activation: NONE, Method: STANDARD PLATE
  mutagenic call: inactive; negative
Test System: AMES SALMONELLA TYPHIMURIUM, Strain/Indicator: TA102, Metabolic Activation: RAT, LIVER, S-9, AROCLOR 1254, Method: STANDARD PLATE
  mutagenic call: inactive; negative
Test System: AMES SALMONELLA TYPHIMURIUM, Strain/Indicator: TA1535, Metabolic Activation: NONE, Method: STANDARD PLATE
  mutagenic call: inactive; negative
Test System: AMES SALMONELLA TYPHIMURIUM, Strain/Indicator: TA1535, Metabolic Activation: RAT, LIVER, S-9, AROCLOR 1254, Method: STANDARD PLATE
  mutagenic call: inactive; negative
[5]
  mutagenic call: inactive; negative
Test System: AMES SALMONELLA TYPHIMURIUM, Strain/Indicator: TA1537, Metabolic Activation: RAT, LIVER, S-9, AROCLOR 1254, Method: STANDARD PLATE
  mutagenic call: inactive; negative
Test System: AMES SALMONELLA TYPHIMURIUM, Strain/Indicator: TA1538, Metabolic Activation: NONE, Method: STANDARD PLATE
  mutagenic call: inactive; negative
Test System: AMES SALMONELLA TYPHIMURIUM, Strain/Indicator: TA1538, Metabolic Activation: RAT, LIVER, S-9, AROCLOR 1254, Method: STANDARD PLATE
  mutagenic call: inactive; negative
Test System: Ames Salmonella typhimurium, Strain/Indicator: TA102, Metabolic Activation: None, Method: Preincubation
  mutagenic call: active; positive
Test System: Ames Salmonella typhimurium, Strain/Indicator: TA102, Metabolic Activation: Rat, Liver, S-9, Aroclor 1254 in 0.154 M KCl, Method: Preincubation
  mutagenic call: active; positive
[6]
  mutagenic call: inactive; negative
Test System: MOUSE LYMPHOMA, Strain/Indicator: L5178Y (TK+/TK-), Metabolic Activation: RAT, LIVER, S-9, AROCLOR 1254, Method: SUSPENSION/PLATE
  mutagenic call: inactive; negative

## CS(=O)(=O)Nc1ccc(Nc2c3ccc(N=[N+]=[N-])cc3nc3cc(N=[N+]=[N-])ccc23)cc1
[5]
  mutagenic call: active; positive

## NC(N)=O
[2]
  mutagenic call: inactive; negative
Test System: AMES SALMONELLA TYPHIMURIUM, Strain/Indicator: TA98, Metabolic Activation: RAT, LIVER, S-9, KC 500, Method: PREINCUBATION
  mutagenic call: inactive; negative
[3]
  mutagenic call: inactive; negative
Test System: AMES SALMONELLA TYPHIMURIUM, Strain/Indicator: TA100, Metabolic Activation: RAT, LIVER, S-9, KC 500, Method: PREINCUBATION
  mutagenic call: inactive; negative
[4]
  mutagenic call: inactive; negative
Test System: AMES SALMONELLA TYPHIMURIUM, Strain/Indicator: TA1535, Metabolic Activation: RAT, LIVER, S-9, KC 500, Method: PREINCUBATION
  mutagenic call: inactive; negative
Test System: AMES SALMONELLA TYPHIMURIUM, Strain/Indicator: TA1537, Metabolic Activation: NONE, Method: PREINCUBATION
  mutagenic call: inactive; negative
Test System: AMES SALMONELLA TYPHIMURIUM, Strain/Indicator: TA1537, Metabolic Activation: RAT, LIVER, S-9, KC 500, Method: PREINCUBATION
  mutagenic call: inactive; negative
Test System: AMES SALMONELLA TYPHIMURIUM, Strain/Indicator: TA1538, Metabolic Activation: NONE, Method: PREINCUBATION
  mutagenic call: inactive; negative
Test System: AMES SALMONELLA TYPHIMURIUM, Strain/Indicator: TA1538, Metabolic Activation: RAT, LIVER, S-9, KC 500, Method: PREINCUBATION
  mutagenic call: inactive; negative
Test System: E. COLI, Strain/Indicator: WP2 UVRA, Metabolic Activation: NONE, Method: PREINCUBATION
  mutagenic call: inactive; negative
Test System: E. COLI, Strain/Indicator: WP2 UVRA, Metabolic Activation: RAT, LIVER, S-9, KC 500, Method: PREINCUBATION
  mutagenic call: inactive; negative
[6]
  mutagenic call: active; positive
